# Literature values in patent US20210213090A1, “COMPOSITIONS, USES AND METHODS FOR TREATMENT AND/OR PREVENTION OF ELEVATED CHOLESTEROL, HYPERCHOLESTEROLEMIA, AND CARDIOVASCULAR DISEASE” (Nutraceutical Holdings Inc., priority 2018, published 2021).
# Test system: LDL-C / cholesterol
# Conditions: human, in vivo
structure (smiles),measurement,value
"COC1=C(OC)C(=O)C(C/C=C(\C)CC/C=C(\C)CC/C=C(\C)CC/C=C(\C)CC/C=C(\C)CC/C=C(\C)CC/C=C(\C)CC/C=C(\C)CC/C=C(\C)CCC=C(C)C)=C(C)C1=O [coenzyme Q10, ubiquinone]","effect of supplementation on statin-related muscle symptoms, in words",decreases statin-related mild-to-moderate muscle symptoms
